Laboratory results as given in patent publication EP0214862A2, “Anti-tumour platinum complexes, their preparation and their use” (priority 1985, dated 1987).

Assays:
L1210 cells = assay: Anti-tumour activity against L1210 leukemia inoculated intraperitoneally in mice (Experiment 1); assay type: in vivo; conditions: L1210, CDF1 mice
Experimental: In the following experiments, the test animals used were 8 to 9 week old female mice of the CDF1 strain, each weighing 20-25 g.
(§1) CDF1 mice were inoculated intraperitoneally with L1210 cells ([…]). […] Each drug was injected intraperitoneally on days 1 and 4 following tumour implantation. The number of mice in each test group was 6.
(§2) The increase in life span (ILS) was calculated as follows: • ILS% = [(St/Su) - 1] x 100 • in which: • St = weighted median number of days survival of treated mice; and • Su = weighted median number of days survival of untreated mice.

[1] = tested on: cisplatin-resistant L1210/CDDP cells; assay: Anti-tumour activity against cisplatin-resistant L1210/CDDP leukemia in mice (Experiment 2); assay type: in vivo
From the text: (§3) In the following experiments, the test animals used were 8 to 9 week old female mice of the CDF1 strain, each weighing 20-25 g. The standard L1210 leukemia cells were supplied by Dr. T. Yamamoto of the Institute of Medical Science, University of Tokyo, Japan, whilst the cisplatin-resistant L1210 cell line (L1210/CDDP) was supplied by Dr. T. Tashiro of the Cancer Chemotherapy Centre, Japanese Foundation for Cancer Research, Tokyo, Japan.
as §1, §2
The procedures described in Experiment 1 were repeated exactly, except that the tumour cells were cisplatin-resistant L1210/CDDP cells.

[2] = tested on: cisplatin-resistant L1210 cell line (L1210/CDDP); assay: In vitro sensitivity of the cisplatin-resistant cell line versus parent L1210; assay type: cell-based, mouse; conditions: L1210/CDDP relative to the parent L1210 cell line
From the text: as §3

[3] = Dose 5 mg/kg intraperitoneally on days 1 and 4
[4] = Dose 10 mg/kg intraperitoneally on days 1 and 4
[5] = Dose 20 mg/kg intraperitoneally on days 1 and 4
[6] = Dose 40 mg/kg intraperitoneally on days 1 and 4
[7] = Dose 80 mg/kg intraperitoneally on days 1 and 4
[8] = Dose 5 mg/kg intraperitoneally on days 1 and 4, CDF1 mice
[9] = Dose 0.625 mg/kg intraperitoneally on days 1 and 4
[10] = Dose 1.25 mg/kg intraperitoneally on days 1 and 4
[11] = Dose 2.5 mg/kg intraperitoneally on days 1 and 4
[12] = Dose 2.5 mg/kg intraperitoneally on days 1 and 4, CDF1 mice
[13] = Dose 30 mg/kg intraperitoneally on days 1 and 4, CDF1 mice
[14] = Dose 60 mg/kg intraperitoneally on days 1 and 4, CDF1 mice

Compound: C1CCC2[NH][Pt-2]3([NH]C2C1)[O]C1=[N+](CCN1)[Pt-2]1([NH2+]C2CCCCC2[NH2+]1)[OH+]3 (stereo not drawn) [Example 1, Hydroxo(ethyleneurea-N,O)-bis(cis-(trans-(ℓ)-1,2-diaminocyclohexane)platinum (II)] nitrate]
- Wt. Change (Change in body weight from day 1 to day 7) (L1210 cells; [3]): +2.6 g
- Wt. Change (Change in body weight from day 1 to day 7) (L1210 cells; [4]): +2.8 g
- Wt. Change (Change in body weight from day 1 to day 7) (L1210 cells; [5]): +2.2 g
- Wt. Change (Change in body weight from day 1 to day 7) (L1210 cells; [6]): +0.4 g
- Wt. Change (Change in body weight from day 1 to day 7) (L1210 cells; [7]): +0.2 g
- Wt. Change (Change in body weight from day 1 to day 7) (L1210 cells; Dose 160 mg/kg intraperitoneally on days 1 and 4): -3.0 g
- toxic (number of mice) (L1210 cells; Dose 240 mg/kg intraperitoneally on days 1 and 4): - (2/6, toxic)
- toxic (number of mice) (L1210 cells; Dose 320 mg/kg intraperitoneally on days 1 and 4): - (5/6, toxic)
- Body weight change from days 1 to 7 [1, 8]: +2.4
- Body weight change from days 1 to 7 ([1]; Dose 10 mg/kg intraperitoneally on days 1 and 4, CDF1 mice): +2.3
- Body weight change from days 1 to 7 ([1]; Dose 20 mg/kg intraperitoneally on days 1 and 4, CDF1 mice): +2.2
- Body weight change from days 1 to 7 ([1]; Dose 40 mg/kg intraperitoneally on days 1 and 4, CDF1 mice): -0.3
- Body weight change from days 1 to 7 ([1]; Dose 80 mg/kg intraperitoneally on days 1 and 4, CDF1 mice): -0.5
- Body weight change from days 1 to 7 ([1]; Dose 160 mg/kg intraperitoneally on days 1 and 4, CDF1 mice): -1.8

Compound: N.N.[Cl][Pt][Cl] [cisplatin]
- degree of cisplatin resistance in terms of in vitro sensitivity [2]: 40 fold
- ILS (Increase in life span) (L1210 cells; [9]): 8%
- Med.S.T. (Median survival time) (L1210 cells; [9]): 9.1 days
- Survivors on day 42 (L1210 cells; [9]): 0/6
- Wt. Change (Change in body weight from day 1 to day 7) (L1210 cells; [9]): +1.6 g
- ILS (Increase in life span) (L1210 cells; [10]): 15%
- Med.S.T. (Median survival time) (L1210 cells; [10]): 9.7 days
- Survivors on day 42 (L1210 cells; [10]): 0/6
- Wt. Change (Change in body weight from day 1 to day 7) (L1210 cells; [10]): +2.5 g
- ILS (Increase in life span) (L1210 cells; [11]): 58%
- Med.S.T. (Median survival time) (L1210 cells; [11]): 13.3 days
- Survivors on day 42 (L1210 cells; [11]): 0/6
- Wt. Change (Change in body weight from day 1 to day 7) (L1210 cells; [11]): +1.7 g
- ILS (Increase in life span) (L1210 cells; [3]): 364%
- Med.S.T. (Median survival time) (L1210 cells; [3]): 39.0 days
- Survivors on day 42 (L1210 cells; [3]): 2/6
- Wt. Change (Change in body weight from day 1 to day 7) (L1210 cells; [3]): -3.5 g
- ILS (Increase in life span) (L1210 cells; [4]): 23%
- Med.S.T. (Median survival time) (L1210 cells; [4]): 10.3 days
- Survivors on day 42 (L1210 cells; [4]): 0/6
- Wt. Change (Change in body weight from day 1 to day 7) (L1210 cells; [4]): -5.5 g
- 30-day survivors [1, 12]: 0/5
- Body weight change from days 1 to 7 [1, 12]: +1.0
- ILS(%) [1, 12]: 2%
- Median survival days [1, 12]: 9.3 days
- 30-day survivors [1, 8]: 0/6
- Body weight change from days 1 to 7 [1, 8]: -1.9
- ILS(%) [1, 8]: 9%
- Median survival days [1, 8]: 9.9 days

Compound: carboplatin
- ILS (Increase in life span) (L1210 cells; [3]): 7%
- Med.S.T. (Median survival time) (L1210 cells; [3]): 9.0 days
- Survivors on day 42 (L1210 cells; [3]): 0/6
- Wt. Change (Change in body weight from day 1 to day 7) (L1210 cells; [3]): +1.3 g
- ILS (Increase in life span) (L1210 cells; [4]): 7%
- Med.S.T. (Median survival time) (L1210 cells; [4]): 9.0 days
- Survivors on day 42 (L1210 cells; [4]): 0/6
- Wt. Change (Change in body weight from day 1 to day 7) (L1210 cells; [4]): +2.0 g
- ILS (Increase in life span) (L1210 cells; [5]): 7%
- Med.S.T. (Median survival time) (L1210 cells; [5]): 9.0 days
- Survivors on day 42 (L1210 cells; [5]): 0/6
- Wt. Change (Change in body weight from day 1 to day 7) (L1210 cells; [5]): +0.8 g
- ILS (Increase in life span) (L1210 cells; [6]): 10%
- Med.S.T. (Median survival time) (L1210 cells; [6]): 9.2 days
- Survivors on day 42 (L1210 cells; [6]): 0/6
- Wt. Change (Change in body weight from day 1 to day 7) (L1210 cells; [6]): +0.4 g
- ILS (Increase in life span) (L1210 cells; [7]): 23%
- Med.S.T. (Median survival time) (L1210 cells; [7]): 10.3 days
- Survivors on day 42 (L1210 cells; [7]): 0/6
- Wt. Change (Change in body weight from day 1 to day 7) (L1210 cells; [7]): -0.5 g
- 30-day survivors [1, 13]: 0/6
- Body weight change from days 1 to 7 [1, 13]: +1.2
- ILS(%) [1, 13]: 9%
- Median survival days [1, 13]: 9.9 days
- 30-day survivors [1, 14]: 0/6
- Body weight change from days 1 to 7 [1, 14]: -0.6
- ILS(%) [1, 14]: 8%
- Median survival days [1, 14]: 9.8 days
